# Paper PMC11121495, “Blap-6, a Novel Antifungal Peptide from the Chinese Medicinal Beetle Blaps rhynchopetera against Cryptococcus neoformans” (International Journal of Molecular Sciences, 2024)
# Where no end group is shown, it is not given here.
# How the values were obtained:
# [1] = tested on: C. neoformans ATCC 32045 cell membrane; assay: Membrane potential, DiSC3(5) staining; type: cell-based, Cryptococcus neoformans; conditions: 1 × MIC, 8 × MIC and 16 × MIC; DiSC3(5) 0.5 μM, ex/em 622/670 nm
# Experimental: DiSC3(5) is a fluorescent probe often used as a tracer dye to assess the cell membrane potential. […] C. neoformans ATCC 32045 was selected for SDB medium and cultured in a constant-temperature shaker at 35 °C to the logarithmic phase. The supernatant was removed by centrifugation at 3500 rpm for 5 min, washed three times with normal saline, and then the fungal solution was diluted with normal saline containing 100 mM potassium chloride to an OD600 of about 0.1. […] The above-mixed suspension was added to a fluorescence-specific 96-well plate, 190 μL per well, and the excitation/emission wavelength was set at 622/670 nm, and a microplate reader was used for measurement. The measurement was performed until the microplate reader value was stable and then continued for 20 min. The experimental group was added with 10 μL blap-6 to make the final concentrations 16 × MIC, 8 × MIC, and 1 × MIC, respectively. The positive control group was added with 10 μL of valinomycin to a final concentration of 10 μM. The negative control was added to 10 μL of normal saline. Continue to measure for 60 min. Three replicates were set up in the experiment.
# [2] = tested on: C. neoformans ATCC 32045; assay: Reactive oxygen species detection, H2DCFDA; type: cell-based, Cryptococcus neoformans; conditions: 1 × MIC, 8 × MIC, 32 × MIC, 30 min, 35 °C; H2DCFDA 10 μM, 488/525 nm
# Experimental: 2′,7′-Dichlorofluorescin diacetate (H2DCFDA) is a cell-permeable probe for detecting intracellular ROS [77]. […] The different concentrations of blap-6 (1 × MIC, 8 × MIC, and 32 × MIC) were incubated with the diluted fungal solution at 35 °C for 30 min, and 0.1 mM H2O2 was used as a positive control. The negative control group was treated with normal saline and incubated at 37 °C for 30 min. Centrifuged at 8000 rpm and 4 °C for 5 min, discard the supernatant, leaving the cell precipitate. The H2DCFDA dye (Boer, Shanghai, China) was dissolved in DMSO and diluted with normal saline containing 1% DMSO to a final concentration of 10 μM. And added 1 mL of H2DCFDA (10 μM) working solution to each tube and incubated at 35 °C for 30 min. And then precipitated the pellets, discarded the supernatant, and paid attention not to suck out the fungi. […] The excitation/wavelength emission was set at 488/525 nm, and three replicates were set in the experiment.
# [3] = tested on: C. neoformans ATCC 32045; assay: Transmission electron microscopy of treated cells; type: cell-based, Cryptococcus neoformans; conditions: 1 × MIC (0.81 μM), 12 h, 37 °C
# Experimental: The suspension of C. neoformans ATCC 32045 was prepared and then centrifuged at 3500 rpm for 5 min. The supernatant was discarded, and sterile normal saline was added for washing. That is, the above operation was repeated three times and re-suspended. […] The positive control, including the concentration of fluconazole and amphotericin, was 1 × MIC. The negative control was added with the same volume of sterile normal saline. After the sample was added to the fungal solution, it was incubated in an incubator at 37 °C for 12 h, and then centrifuged at 1000 rpm for 10 min. The supernatant was discarded, and osmium tetroxide was slowly added along the tube wall for fixation and fixed at 4 °C for 3 h. Gradient ethanol was used for dehydration, infiltration, and embedding. Finally, ultrathin sections were performed. After the above operation, the morphological changes in C. neoformans were observed by TEM (Tecnai G2 Spirit, FEI, Eindhoven, Holland) and photographed.
# [4] = tested on: C. neoformans ATCC 32045 pre-formed biofilm; assay: Biofilm eradication (crystal violet); type: cell-based, Cryptococcus neoformans; conditions: 1 × MIC, 48 h pre-formed biofilm, 48 h treatment, A600
# Experimental: The single colony of C. neoformans ATCC 32045 was picked and cultured at 180 rpm and 37 °C. After washing with normal saline three times and being resuspended, the concentration of the fungal solution was adjusted to 1 × 10^6 CFU/mL and then added to a 96-well plate. Each well was incubated at 37 °C for 48 h. The fungal solution was discarded and washed three times with PBS for 1 min each time. The sample to be tested was diluted with normal saline to 0.5×, 1×, 2×, 4× and 8 × MIC, and 200 μL was added to the 96-well plate, respectively. Each concentration was set to three replicate wells, and the negative control group was added with the same volume of sterile normal saline. In the positive control group, 10 μM fluconazole and 10 μM amphotericin B were added and incubated at 37 °C for 48 h. After that, the supernatant was discarded and washed three times with sterile PBS for 1 min each time. And then, 99% methanol was added and fixed for 5 min. Methanol was removed and dried under the ultra-clean bench. After staining with 100 μL 0.1% crystal violet for 5 min, wash the plate with PBS, dry, and add 100 μL 95% ethanol. The absorbance at 600 nm was detected by a microplate reader.
# [5] = tested on: C. neoformans; assay: microbe, parasite or virus in culture; type: cell-based, Cryptococcus neoformans (ATCC 32045)
# Description: These standard strains of Escherichia coli (E. coli, ATCC 8739), Staphylococcus aureus (S. aureus, ATCC 6538), Pseudomonas aeruginosa (P. aeruginosa, ATCC 27853), Acinetobacter baumannii (A. baumannii, ATCC 1968), Candida albicans (ATCC 10231), and the clinical strain of Methicillin-resistant Staphylococcus aureus (MRSA, MRSA-Z) were obtained from Kunming Medical University. The standard strain of C. neoformans (ATCC 32045) was purchased from Shanghai Yingxin Laboratory Co., Ltd. (CAS NO. YXJ50058). Different strains of E. coli, S. aureus, MRSA, P. aeruginosa, and A. baumannii were cultured with shaking at 37 °C in Luria–Bertani (LB) medium. C. neoformans was cultured at 35 °C in Sabouraud Dextrose Agar (SDA) medium according to the manufacturer’s instructions.
# According to Clinical and Laboratory Standards Institute (CLSI) protocols, the minimum inhibitory concentration (MIC) is the minimum drug concentration at which antibiotics inhibit the growth and reproduction of strains. The different strains were grown in their corresponding media at 35 °C or 37 °C until they entered the exponential growth phase. Fluconazole and amphotericin B were used as positive controls, and sterile 0.9% NaCl was used as a negative control. The peptides were diluted to various concentrations in sterile saline. According to 1 OD = 1 × 10^9 CFU/mL, the above bacterial solution was diluted to 2 × 10^5 CFU/mL with the corresponding medium. In advance, 100 μL of normal saline was added to a sterile 96-well plate, and 200 μL of the sample to be tested was added to the first well. The sample to be tested was subjected to double gradient dilution, and then 100 μL of bacterial solution with a concentration of 2 × 10^5 was added to each well. It was cultured at 35 °C or 37 °C for different times. The light absorption value of the bacterial solution at 600 nm was detected by a microplate reader (Epoch Etock, Biotek, Winooski, VT, USA), and the average concentration of the samples in the pores and adjacent pores that could not detect microbial growth was used as the MIC value.
sequence,measurement,setting,value
KRCRFRIYRWGFPRRRF [blap-6],change of membrane potential,[1],deviations toward cell hyperpolarization in a dose-dependent manner
same,production of reactive oxygen species (ROS),[2],concentration-dependent increase
same,cell morphology by TEM,[3],severe disruption of the structural and cellular morphology
same,eradication of pre-formed biofilm,[4],ability to remove pre-formed C. neoformans biofilm
same,MIC,[5],0.81 µM
